Experimental data published in patent US6900224B2, “Antimicrobial quinolones, their compositions and uses” (The Procter & Gamble Company, priority 2002, dated 2005).

Key:
Escherichia coli = experiment: treatment of human subject with urinary tract infection, enteric coated oral tablets; format: in vivo; settings: two enteric coated tablets (350 mg each) orally every 8 hours for 4 days
Excerpt: An enteric coated antimicrobial composition for oral administration, according to this invention, is made comprising the following core tablet:
The components are admixed into a bulk mixture. Compressed tablets are formed, using tabletting methods known in the art. The tablet is then coated with a suspension of methacrylic acid/methacrylic acid ester polymer in isopropanol/acetone. A human subject, having a urinary tract infection with Escherichia coli present, is orally administered two of the tablets, every 8 hours, for 4 days.

[1] = reported side effect; cited from earlier work
Streptococcus pneumoniae = settings: human, lower respiratory tract infection with Streptococcus pneumoniae; 30 mg/mL suspension, approx. 2.0 mL intramuscular twice daily for approx. 14 days; after 4 days
Description: An antimicrobial composition for parenteral administration, according to this invention, is made comprising:
The above ingredients are mixed, forming a suspension. Approximately 2.0 mL of the suspension is systemically administered, via intramuscular injection, to a human subject suffering from a lower respiratory tract infection, with Streptococcus pneumoniae present. This dosage is repeated twice daily, for approximately 14 days.

7-[7-amino-8R-methyl-5-azaspiro[2.5]-octanyl]-1-cyclopropyl-1,4-dihydro-6-fluoro-8-methoxy-4-oxo-3-quinolinecarboxylic acid hydrochloride [Example 5]
symptoms of the disease / eradication of the pathogen (Escherichia coli): Symptoms of the disease then subside

COc1c(N2CCNC(C)C2)c(F)cc2c(=O)c(C(=O)O)cn(C3CC3)c12 (racemic) [gatifloxacin, (±)-1-cyclopropyl-6-fluoro-1,4-dihydro-8-methoxy-7-(3-methyl-1-piperazinyl)-4-oxo-3-quinoline carboxylic acid]
clastogenicity [1]: exhibit clastogenicity

CC[C@@H]1[C@H](N)CN(c2nc3c(cc2F)c(=O)c(C(=O)O)cn3C2CC2)C[C@@H]1C.Cl [Example 12, 7-[3S-amino-4S-ethyl-5R-methyl-piperidinyl]-1-Cyclopropyl-1,4-dihydro-6-fluoro-4-oxo-1,8-naphthyridine-3-carboxylic acid hydrochloride]
symptoms of the disease / eradication of the pathogen (Streptococcus pneumoniae): symptoms of the disease subside
